Experimental data published in US4379917A, “6"-(Substituted)-apramycin antibiotic derivatives and intermediates and starting materials therefor” (Eli Lilly and Company, priority 1981, dated 1983).
≈ marks a conversion by molar mass, not a printed value. Where two headings read alike, the source gives them in different places.

What was measured:
[1] = tested on: Staphylococcus aureus 3055; assay: MIC by standard agar dilution test; format: cell-based; conditions: Staphylococcus aureus, 3055, read-out: Minimum Inhibitory Concentration
[2] = tested on: Proteus morganii PR15; assay: MIC by standard agar dilution test; format: cell-based; conditions: Morganella morganii, PR15; Table II; agar dilution; read-out: Minimum Inhibitory Concentration
[3] = tested on: Klebsiella pneumoniae KL2; assay: MIC by standard agar dilution test; format: cell-based; conditions: KL2, read-out: Minimum Inhibitory Concentration
[4] = tested on: Pseudomonas aeruginosa X239; assay: MIC by standard agar dilution test; format: cell-based
[5] = tested on: Enterobacter aerogenes EB6; assay: MIC by standard agar dilution test; format: cell-based; conditions: Klebsiella aerogenes, EB6, read-out: Minimum Inhibitory Concentration
[6] = tested on: Proteus inconstans PV25; assay: MIC by standard agar dilution test; format: cell-based; conditions: Providencia alcalifaciens, PV25, read-out: Minimum Inhibitory Concentration
[7] = tested on: Serratia marcescens X99; assay: MIC by standard agar dilution test; format: cell-based; conditions: X99, read-out: Minimum Inhibitory Concentration
[8] = tested on: Enterobacter cloacae EN453; assay: MIC by standard agar dilution test; format: cell-based; conditions: EN453, read-out: Minimum Inhibitory Concentration
[9] = tested on: Pseudomonas aeruginosa Ps15; assay: MIC by standard agar dilution test; format: cell-based; conditions: PS15, read-out: Minimum Inhibitory Concentration
[10] = tested on: Pseudomonas aeruginosa 4276; assay: MIC by standard agar dilution test; format: cell-based
[11] = tested on: Pseudomonas solanacearum X185; assay: microbe, parasite or virus in culture; format: cell-based; conditions: Ralstonia solanacearum, X185, read-out: Minimum Inhibitory Concentration
[12] = tested on: Salmonella typhosa SA12; assay: MIC by standard agar dilution test; format: cell-based; conditions: Salmonella enterica, read-out: Minimum Inhibitory Concentration
[13] = tested on: Pseudomonas aeruginosa PI23; assay: MIC by standard agar dilution test; format: cell-based
[14] = tested on: Escherichia coli EC14; assay: MIC by standard agar dilution test; format: cell-based; conditions: EC14, read-out: Minimum Inhibitory Concentration
[15] = tested on: Serratia marcescens SE2; assay: MIC by standard agar dilution test; format: cell-based; conditions: SE2, read-out: Minimum Inhibitory Concentration
[16] = tested on: Pseudomonas aeruginosa X48; assay: MIC by standard agar dilution test; format: cell-based; conditions: X48, read-out: Minimum Inhibitory Concentration
[17] = tested on: Bordetella bronchiseptica 16; assay: MIC by standard agar dilution test; format: cell-based
[18] = tested on: Proteus morganii PR2; assay: MIC by standard agar dilution test; format: cell-based; conditions: Morganella morganii, PR2; Table 1; agar dilution; read-out: Minimum Inhibitory Concentration
[19] = tested on: Proteus morganii PR1; assay: MIC by standard agar dilution test; format: cell-based; conditions: Morganella morganii, PR1, read-out: Minimum Inhibitory Concentration
[20] = tested on: Serratia marcescens SE3; assay: MIC by standard agar dilution test; format: cell-based
[21] = tested on: Enterobacter aerogenes EB17; assay: MIC by standard agar dilution test; format: cell-based; conditions: Klebsiella aerogenes, EB17, read-out: Minimum Inhibitory Concentration
[22] = tested on: Streptococcus faecalis X66; assay: MIC by standard agar dilution test; format: cell-based; conditions: Enterococcus faecalis, X66; Table II; agar dilution; read-out: Minimum Inhibitory Concentration
[23] = tested on: Erwinia amylovora; assay: MIC by standard agar dilution test; format: cell-based; conditions: Table II, read-out: Minimum Inhibitory Concentration
Text: (§1) The antibacterial activity of the antibiotic compounds of this invention is illustrated by the following in vitro and in vivo test data obtained with representative compounds. In Tables I and II the minimum inhibitory concentration (MIC) for representative compounds against a wide range of gram-positive and gram-negative bacteria is presented. The MIC values were obtained by the standard agar dilution test.

[24] = tested on: Staphylococcus aureus 3074; assay: MIC by standard agar dilution test; format: cell-based; conditions: Table II, read-out: Minimum Inhibitory Concentration
Text: as §1

[25] = tested on: Pseudomonas aeruginosa Ps9; assay: MIC by standard agar dilution test; format: cell-based
[26] = tested on: Klebsiella pneumoniae KL14; assay: MIC by standard agar dilution test; format: cell-based; conditions: KL14, read-out: Minimum Inhibitory Concentration
[27] = tested on: Salmonella typhimurium; assay: MIC by standard agar dilution test; format: cell-based; conditions: Salmonella enterica, read-out: Minimum Inhibitory Concentration
[28] = tested on: Pseudomonas aeruginosa SF-2; assay: MIC by standard agar dilution test; format: cell-based
[29] = tested on: Pseudomonas aeruginosa X528; assay: MIC by standard agar dilution test; format: cell-based
[30] = tested on: Pseudomonas aeruginosa Ps25; assay: MIC by standard agar dilution test; format: cell-based; conditions: PS25, read-out: Minimum Inhibitory Concentration
[31] = tested on: Enterobacter cloacae EB24; assay: MIC by standard agar dilution test; format: cell-based; conditions: EB24, read-out: Minimum Inhibitory Concentration
[32] = tested on: Citrobacter freundii CF17; assay: MIC by standard agar dilution test; format: cell-based
[33] = tested on: Pseudomonas aeruginosa X239; assay: Subcutaneous therapy of Pseudomonas aeruginosa X239 infections in mice; format: in vivo; conditions: X239, sc, 2 subcutaneous doses at 1 and 5 hours post infection, dose to protect 50 percent of test animals, read-out: Effective Dose (ED50)
Method: Table III illustrates the effective dose (ED50, effective dose to protect 50 percent of the test animals) for representative compounds of this invention against an experimental bacterial infection in mice. | *mg/kg × 2 subcutaneous doses at 1 and 5 hours post infections The ED50 values were determined as described by W. E. Wick et al., Journal of Bacteriolocy, 81 [No. 2], 233-235 (1961).

[34] = X239, read-out: Minimum Inhibitory Concentration, Table II
[35] = SE3, read-out: Minimum Inhibitory Concentration, Table 1
[36] = SE3, read-out: Minimum Inhibitory Concentration, Table II

SMILES | MIC [1] [µg/mL] | MIC [2] [µg/mL] | MIC [3] [µg/mL] | MIC [4, 34] [µg/mL] | MIC [5] [µg/mL] | MIC [6] [µg/mL] | MIC [7] [µg/mL] | MIC [8] [µg/mL] | MIC [9] [µg/mL] | MIC [11] [µg/mL] | MIC [12] [µg/mL] | MIC [14] [µg/mL] | MIC [15] [µg/mL] | MIC [16] [µg/mL] | MIC [18] [µg/mL] | MIC [19] [µg/mL] | MIC [20, 35] [µg/mL] | MIC [20, 36] [µg/mL] | MIC [21] [µg/mL] | MIC [22] [µg/mL] | also measured
CN[C@@H]1[C@@H](O[C@H]2O[C@H](CCl)[C@@H](N)[C@H](O)[C@H]2O)O[C@H]2C[C@@H](N)[C@@H](O[C@H]3[C@H](O)[C@@H](O)[C@H](N)C[C@@H]3N)O[C@@H]2[C@@H]1O [Test Compound 3, 6"-Chloro-6"-Deoxyapramycin] | 1 (≈ 1.79 µM) | 8 (≈ 14.3 µM) | 4 (≈ 7.17 µM) | 2 (≈ 3.58 µM) | 4 (≈ 7.17 µM) | 4 (≈ 7.17 µM) | 4 (≈ 7.17 µM) | 4 (≈ 7.17 µM) | 16 (≈ 28.7 µM) | 2 (≈ 3.58 µM) | 2 (≈ 3.58 µM) | 16 (≈ 28.7 µM) | 4 (≈ 7.17 µM) | 16 (≈ 28.7 µM) | 32 (≈ 57.3 µM) | 4 (≈ 7.17 µM) | 4 (≈ 7.17 µM) | 16 (≈ 28.7 µM) | 16 (≈ 28.7 µM) | 8 (≈ 14.3 µM) | MIC ([4]; X239, Table 1, read-out: Minimum Inhibitory Concentration): 8 µg/mL (≈ 14.3 µM); MIC ([10]; Pseudomonas aeruginosa, 4276, read-out: Minimum Inhibitory Concentration): 16 µg/mL (≈ 28.7 µM); MIC ([13]; PI23, Table 1, agar dilution, read-out: Minimum Inhibitory Concentration): > 128 µg/mL; MIC ([17]; Bordetella bronchiseptica, 16, Table II, agar dilution, read-out: Minimum Inhibitory Concentration): 8 µg/mL (≈ 14.3 µM); MIC [23]: 1 µg/mL (≈ 1.79 µM); MIC [24]: 1 µg/mL (≈ 1.79 µM); MIC ([25]; PS9, Table 1, agar dilution, read-out: Minimum Inhibitory Concentration): 32 µg/mL (≈ 57.3 µM); MIC [26]: 2 µg/mL (≈ 3.58 µM); MIC ([27]; Table II, agar dilution): 8 µg/mL (≈ 14.3 µM); MIC ([28]; SF2, read-out: Minimum Inhibitory Concentration): 16 µg/mL (≈ 28.7 µM); MIC ([29]; X528, Table 1, agar dilution, read-out: Minimum Inhibitory Concentration): 32 µg/mL (≈ 57.3 µM); MIC [30]: 16 µg/mL (≈ 28.7 µM); MIC [31]: 4 µg/mL (≈ 7.17 µM); MIC ([32]; CF17, read-out: Minimum Inhibitory Concentration): 4 µg/mL (≈ 7.17 µM)
CN[C@@H]1[C@@H](O[C@H]2O[C@H](C)[C@@H](N)[C@H](O)[C@H]2O)O[C@H]2C[C@@H](N)[C@@H](O[C@H]3[C@H](O)[C@@H](O)[C@H](N)C[C@@H]3N)O[C@@H]2[C@@H]1O [Test Compound 4, 6"-Deoxyapramycin] | 2 (≈ 3.82 µM) | 8 (≈ 15.3 µM) | 4 (≈ 7.64 µM) | 2 (≈ 3.82 µM) | 4 (≈ 7.64 µM) | 2 (≈ 3.82 µM) | 2 (≈ 3.82 µM) | 4 (≈ 7.64 µM) | 4 (≈ 7.64 µM) | 4 (≈ 7.64 µM) | 4 (≈ 7.64 µM) | 16 (≈ 30.6 µM) | 4 (≈ 7.64 µM) | 4 (≈ 7.64 µM) | 8 (≈ 15.3 µM) | 4 (≈ 7.64 µM) | 4 (≈ 7.64 µM) | 16 (≈ 30.6 µM) | 4 (≈ 7.64 µM) | 8 (≈ 15.3 µM) | MIC ([4]; X239, read-out: Minimum Inhibitory Concentration, Table 1): 4 µg/mL (≈ 7.64 µM); ED50 [33]: 10.9 mg/kg; MIC ([10]; Pseudomonas aeruginosa, 4276, Table 1, agar dilution, read-out: Minimum Inhibitory Concentration): 8 µg/mL (≈ 15.3 µM); MIC ([13]; PI23, read-out: Minimum Inhibitory Concentration): > 128 µg/mL; MIC ([17]; Bordetella bronchiseptica, 16, read-out: Minimum Inhibitory Concentration): 16 µg/mL (≈ 30.6 µM); MIC [23]: 2 µg/mL (≈ 3.82 µM); MIC [24]: 1 µg/mL (≈ 1.91 µM); MIC ([25]; PS9, read-out: Minimum Inhibitory Concentration): 16 µg/mL (≈ 30.6 µM); MIC [26]: 4 µg/mL (≈ 7.64 µM); MIC [27]: 16 µg/mL (≈ 30.6 µM); MIC ([28]; SF2, Table 1, agar dilution, read-out: Minimum Inhibitory Concentration): 8 µg/mL (≈ 15.3 µM); MIC ([29]; X528, read-out: Minimum Inhibitory Concentration): 16 µg/mL (≈ 30.6 µM); MIC [30]: 4 µg/mL (≈ 7.64 µM); MIC [31]: 4 µg/mL (≈ 7.64 µM); MIC ([32]; CF17, Table II, agar dilution, read-out: Minimum Inhibitory Concentration): 8 µg/mL (≈ 15.3 µM)
